US20240050408A1, “USE OF MGLUR5 ANTAGONISTS FOR TREATING AMPHETAMINE ADDICTION” (NOVARTIS AG, priority 2020, published 2024)

Tested on: patients with Cocaine Use Disorder (CUD)
Assay: Phase 2 trial: anxiety (STAI) and depressive symptoms (BDI-II)
Format: in vivo, human
Conditions: for anxiety symptoms by STAI: difference vs placebo not statistically significant (P=0.144 S-Anxiety, P=0.425 T-Anxiety); for depressive symptoms by BDI: difference vs placebo not statistically significant (P=0.696 BDI-II)
Method: This study was conducted in patients with CUD and consisted of about a 21-day screening period followed by a 7-day baseline period, a 98-day outpatient treatment period, and an end of study visit evaluation about 14 days after the last study drug administration ([…]. A). Study treatment was taken twice daily (separated by about 12-hour intervals) with food. For patients in the mavoglurant arm [mavoglurant (free form) provided as modified release formulation (e.g. in WO2014/199316)], an uptitration regimen was performed for 14 days (50 mg b.i.d. from Days 1 to 7 and 100 mg b.i.d from Days 8 to 14) and was followed by 200 mg b.i.d for 84 days.
Patient Reported Outcome included: • 1. The TLFB cocaine: is a cocaine assessment method that obtains estimates of daily cocaine intake and has been evaluated with clinical and nonclinical populations. Using a calendar, people provide retrospective estimates of their daily cocaine use over a specified time period that can vary up to 12 months from the interview date. Several memory aids can be used to enhance recall (e.g., calendar; key dates serve as anchors for reporting cocaine use). […] The method is recommended for use when relatively precise estimates of cocaine use are necessary, especially when a complete use pre-posttreatment). Clinically, the TLFB can be used to provide feedback about one's cocaine consumption in an effort to increase a client's motivation to change. • 2. The TLFB alcohol: is a drinking assessment method that obtains estimates of daily drinking and has been evaluated with clinical and nonclinical populations. Using a calendar, people provide retrospective estimates of their daily drinking over a specified time period that can vary up to 12 months from the interview date. Several memory aids can be used to enhance recall (e.g., calendar; key dates serve as anchors for reporting drinking; standard drink conversion). […] The method is recommended for use when relatively precise estimates of drinking are necessary, especially when a complete picture of drinking days (i.e., high- and low-risk days) is needed (evaluating drinking pre/post-treatment). Clinically, the TLFB can be used to provide feedback about one's drinking in an effort to increase a client's motivation to change. Overall, the Alcohol TLFB method provides a relatively accurate portrayal of drinking, and has both clinical and research utility. • 3. The BDI-II: is instrument endorsed by the National Institute for Health and Clinical Excellence for use in primary care in measuring baseline depression severity and responsiveness to treatment. • 4. The STAI: is an assessment tool for measuring the presence and severity of current symptoms of anxiety and a generalized propensity to be anxious. […]

COC(=O)N1CC[C@@H]2[C@H]1CCC[C@@]2(O)C#Cc1cccc(C)c1 [mavoglurant, (-)-(3aR,4S,7aR)-4-Hydroxy-4-m-tolylethynyl-octahydro-indole-1-carboxylic acid methyl ester]
anxiety symptoms by STAI: reduced nonsignificantly | anxiety symptoms by STAI (listed as Mavoglurant): reduced anxiety and depressive symptoms | depressive symptoms by BDI: reduced nonsignificantly | depressive symptoms by BDI (listed as Mavoglurant): reduced anxiety and depressive symptoms
